Here are results for 3 compounds from patent US12398138B2, “FGFR inhibitor compound in solid form and preparation method therefor” (CSPC ZHONGQI PHARMACEUTICAL TECHNOLOGY (SHIJIAZHUANG) CO., …, priority 2019, dated 2025).

The nature of data set [1]: Hygroscopicity by dynamic vapor sorption (DVS). The conditions noted are these: 25° C. and 80% RH. The data set is classed as physicochemical. On the procedure:
Dynamic Vapor Sorption (DVS)
Test condition: Approximately 10-15 mg of sample was used for DVS detection.
Equilibrating dm/dt: 0.01%/min: (time: 10 min-180 min (maximum))
RH (%) measuring gradient: 10%
Range of RH (%) measuring gradient: 0%-90%-0%
The evaluation criteria was as follows:
SMS DVS Advantage dynamic vapor adsorption instrument
10-15 mg of the crystal form B of the compound of Formula (I) was taken and placed on a DVS sample pan for test.

Data set [2] has as its target T1, FGFR1 (V561M) (Homo sapiens, UniProt P11362, V561M).
T1 construct: purchased Signal Chem F04-13G
The data set can be described thus: 33P isotope-labeled kinase activity assay, mutant FGFR1 (V561M). It is filed as biochemical. The conditions noted are these: ATP 10 μM. Here is the method:
(§1) IC50 was determined by using ^33P isotope-labeled kinase activity assay (Reaction Biology Corp), to evaluate the inhibitory ability of the test compound against mutant FGFR.
(§2) Test procedures: At room temperature, test compound was dissolved in DMSO to prepare a 10 mM solution. The substrate was dissolved in a freshly prepared buffer, to which the test kinase was added and well mixed. By using acoustic technology (Echo 550), the solution of the test compound in DMSO was added into the well-mixed reaction solution, to allow a compound concentration in reaction solution to be 10 μM, 3.33 μM, 1.11 μM, 0.370 μM, 0.123 μM, 41.2 nM, 13.7 nM, 4.57 nM, 1.52 nM, 0.508 nM, or to be 10 μM, 2.50 μM, 0.62 μM, 0.156 μM, 39.1 nM, 9.8 nM, 2.4 nM, 0.61 nM, 0.15 nM, 0.038 nM. After 15 minutes of incubation, ^33P-ATP (having an activity of 0.01 μCi/μl, and corresponding concentrations were given in Table 5) was added to start the reaction. […] After washing the filter paper with a 0.75% phosphoric acid solution repeatedly, the radioactivity of the phosphorylated substrate left on the filter paper was measured. The kinase activity data was expressed by comparing the kinase activity of the test compound with that of blank group (containing DMSO only), and IC50 was determined by curve fitting with Prism4 software (GraphPad).

Data set [3] addresses T2, FGFR3 (K650M) (Homo sapiens, UniProt P22607, K650M).
T2 construct: purchased Carna Biosciences Carna 08-199
In words: 33P isotope-labeled kinase activity assay, mutant FGFR3 (K650M). The data set is classed as biochemical. The conditions noted are these: ATP 2.5 μM. Here is the method: as §1, §2

Data set [4] addresses T3, FGFR2 (N549H) (Homo sapiens, UniProt P21802, N549H).
T3 construct: purchased Millipore 14-742
The data set can be described thus: 33P isotope-labeled kinase activity assay, mutant FGFR2 (N549H). The conditions noted are these: ATP 50 μM. The data set is classed as biochemical. On the procedure: as §1, §2

Data set [5] is described as follows: Pharmacokinetic investigation in dogs. The data set is classed as in vivo. The conditions noted are these: male, dog, plasma, beagle dogs; for AUC: read-out: Concentration integral AUC; for half-life: read-out: Half-life T1/2 (converted); for bioavailability: read-out: Bioavailability F. The text has this: The experiments aimed to test the pharmacokinetics of the test compound in beagle dogs.
Two beagle dogs were selected as one group. The compound was formulated into a designated preparation. The vehicle for intravenous injection was a mixture of DMSO: polyethylene glycol […] (PEG400): saline=10:40:50 (volume ratio) or a mixture of 10% DMSO/10% solutol/80% water. The vehicle for oral administration was a mixture of 0.5% methylcellulose (MC)+0.2% Tween. Each animal was given the preparation intragastrically at a predetermined dosage.
Whole blood samples, each about 500 μL, were collected from the cephalic vein or saphenous vein at […], namely 5 minutes, 15 minutes, 30 minutes, 1 hour, 2 hours, 4 hours, 6 hours, 8 hours, 12 hours and 24 hours after the animals were administered.
The […] was put into a centrifuge tube containing anticoagulant, and centrifuged at 3000 g for 10 min at 4° C. The plasma supernatant was frozen quickly on dry ice, and then kept in a frige at −70±10° C. until LC-MS/MS analysis was performed.
The plasma concentration of the compound was processed using a non-compartmental model by WinNonlin™ Version 6.3.0 (Pharsight, Mountain View, Calif.) pharmacokinetic software. The peak concentration (Cmax), time of maximum plasma concentration (Tmax), and time of the last quantifiable concentration, were determined directly from the curve of plasma concentration−time.
The following pharmacokinetic parameters: half-life time of elimination phase (T½), the mean residence time of the drug in the body from time 0 to the end timepoint (MRT0-last), the mean residence time of the drug in the body from time 0 to infinite time (MRT0-inf), area under the plasma concentration-time curve from time 0 to the end timepoint (AUC0-last), area under plasma concentration-time curve from time 0 to infinite time (AUC0-inf), were calculated using the log-linear trapezoidal method.
For the individual plasma concentration below the detection line, when it appeared before Tmax, it was calculated as 0; when it appeared after Tmax, it was directly excluded. All parameters and ratios were reported in the form of three significant figures.
In these experiments, the pharmacokinetic parameters were calculated based on the theoretical blood collection time and theoretical administration concentration in the embodiments.

Data set [6] has as its target T4, FGFR2 (V564F) (Homo sapiens, UniProt P21802, V564F).
T4 construct: purchased SignalChem F05-12FG
In words: 33P isotope-labeled kinase activity assay, mutant FGFR2 (V564F). It is filed as biochemical. The conditions noted are these: ATP 20 μM. Here is the method:
as §1, §2

The target in data set [7] is T5, FGFR2 (E565G) (Homo sapiens, UniProt P21802, E565G).
T5 construct: purchased Signal Chem F05-12CG
T5 sequence (P21802 22-821 E565G): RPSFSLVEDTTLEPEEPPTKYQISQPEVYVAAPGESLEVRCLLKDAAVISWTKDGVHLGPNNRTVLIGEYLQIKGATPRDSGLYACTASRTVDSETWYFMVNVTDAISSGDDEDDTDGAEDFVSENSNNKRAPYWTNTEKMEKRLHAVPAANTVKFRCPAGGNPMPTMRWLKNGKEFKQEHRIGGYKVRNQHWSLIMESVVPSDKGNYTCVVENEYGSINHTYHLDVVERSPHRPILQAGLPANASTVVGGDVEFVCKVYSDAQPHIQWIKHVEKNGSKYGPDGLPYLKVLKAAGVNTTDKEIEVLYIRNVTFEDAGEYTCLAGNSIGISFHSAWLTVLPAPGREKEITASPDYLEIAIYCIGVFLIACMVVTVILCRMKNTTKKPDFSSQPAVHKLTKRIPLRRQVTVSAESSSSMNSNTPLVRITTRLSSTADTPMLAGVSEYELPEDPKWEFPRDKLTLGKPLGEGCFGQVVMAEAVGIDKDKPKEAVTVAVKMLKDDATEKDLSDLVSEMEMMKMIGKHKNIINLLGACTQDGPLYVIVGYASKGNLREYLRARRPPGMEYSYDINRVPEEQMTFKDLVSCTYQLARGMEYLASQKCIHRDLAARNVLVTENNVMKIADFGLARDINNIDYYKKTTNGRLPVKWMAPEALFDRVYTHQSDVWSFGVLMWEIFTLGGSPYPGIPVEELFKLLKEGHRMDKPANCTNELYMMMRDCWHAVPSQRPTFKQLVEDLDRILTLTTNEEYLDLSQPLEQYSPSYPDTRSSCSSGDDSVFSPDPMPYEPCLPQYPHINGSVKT
In words: 33P isotope-labeled kinase activity assay, mutant FGFR2 (E565G). It is filed as biochemical. The conditions noted are these: ATP 10 μM. Here is the method:
as §1, §2

Data set [8] has as its target T6, FGFR4 (V550M) (Homo sapiens, UniProt P22455, V550M).
T6 construct: purchased Signal Chem F07-12DG
In words: 33P isotope-labeled kinase activity assay, mutant FGFR4 (V550M). It is filed as biochemical. The conditions noted are these: ATP 2.5 μM. Here is the method: as §1, §2

In data set [9] the target is T7, FGFR4 (N535K) (Homo sapiens, UniProt P22455, N535K).
T7 construct: purchased Carna Biosciences Carna 08-524
T7 sequence (P22455 22-802 N535K): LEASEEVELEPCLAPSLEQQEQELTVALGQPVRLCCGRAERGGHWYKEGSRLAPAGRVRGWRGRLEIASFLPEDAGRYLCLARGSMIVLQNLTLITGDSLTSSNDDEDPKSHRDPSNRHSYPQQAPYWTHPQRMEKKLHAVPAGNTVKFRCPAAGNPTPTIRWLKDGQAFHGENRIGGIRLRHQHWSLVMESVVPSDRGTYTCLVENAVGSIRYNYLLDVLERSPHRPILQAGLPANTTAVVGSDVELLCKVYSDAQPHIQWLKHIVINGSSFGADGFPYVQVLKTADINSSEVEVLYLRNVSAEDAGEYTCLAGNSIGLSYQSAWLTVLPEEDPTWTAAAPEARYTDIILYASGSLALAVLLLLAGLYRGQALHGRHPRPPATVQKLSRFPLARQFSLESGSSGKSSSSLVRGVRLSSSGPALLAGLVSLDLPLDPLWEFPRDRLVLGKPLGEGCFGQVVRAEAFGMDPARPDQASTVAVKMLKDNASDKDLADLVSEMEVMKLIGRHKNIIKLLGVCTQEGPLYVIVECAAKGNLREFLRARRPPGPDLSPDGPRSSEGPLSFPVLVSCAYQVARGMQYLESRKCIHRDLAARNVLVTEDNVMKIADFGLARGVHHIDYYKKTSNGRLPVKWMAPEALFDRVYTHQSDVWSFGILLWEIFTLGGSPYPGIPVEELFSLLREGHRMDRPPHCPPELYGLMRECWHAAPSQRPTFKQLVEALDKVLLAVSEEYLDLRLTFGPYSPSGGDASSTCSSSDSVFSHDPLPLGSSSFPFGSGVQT
In words: 33P isotope-labeled kinase activity assay, mutant FGFR4 (N535K). The data set is classed as biochemical. The conditions noted are these: ATP 2.5 μM. Here is the method:
as §1, §2

The target in data set [10] is T8, human FGFR1 (Homo sapiens, UniProt P11362).
T8 construct: purchased Invitrogen PV3146
T8 sequence (P11362 22-822): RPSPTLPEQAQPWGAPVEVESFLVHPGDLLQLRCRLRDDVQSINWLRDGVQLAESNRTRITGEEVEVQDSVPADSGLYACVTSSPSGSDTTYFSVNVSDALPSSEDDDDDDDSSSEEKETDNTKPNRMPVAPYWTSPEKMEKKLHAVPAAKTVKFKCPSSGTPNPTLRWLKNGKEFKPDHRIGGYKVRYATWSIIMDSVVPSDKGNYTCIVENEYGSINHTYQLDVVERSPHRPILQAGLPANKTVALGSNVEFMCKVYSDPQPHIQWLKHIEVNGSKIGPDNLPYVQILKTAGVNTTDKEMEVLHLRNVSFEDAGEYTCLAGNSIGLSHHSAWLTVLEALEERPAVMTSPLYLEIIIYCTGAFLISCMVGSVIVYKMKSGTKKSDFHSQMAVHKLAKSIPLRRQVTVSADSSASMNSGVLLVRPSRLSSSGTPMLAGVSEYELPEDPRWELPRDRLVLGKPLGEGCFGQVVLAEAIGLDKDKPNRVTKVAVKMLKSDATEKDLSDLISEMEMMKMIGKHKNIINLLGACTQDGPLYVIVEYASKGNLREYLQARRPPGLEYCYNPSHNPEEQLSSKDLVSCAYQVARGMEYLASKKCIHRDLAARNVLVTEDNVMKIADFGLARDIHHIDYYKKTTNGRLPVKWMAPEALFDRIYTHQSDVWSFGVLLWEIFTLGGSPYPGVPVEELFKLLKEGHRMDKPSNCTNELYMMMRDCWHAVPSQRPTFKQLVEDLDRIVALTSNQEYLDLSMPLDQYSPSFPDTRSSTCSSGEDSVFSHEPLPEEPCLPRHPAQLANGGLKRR
In words: 33P isotope-labeled kinase activity assay, wild type FGFR1. It is filed as biochemical. The conditions noted are these: ATP 5 μM. Here is the method:
(§3) IC50 was determined by using ^33P isotope-labeled kinase activity assay (Reaction Biology Corp), to evaluate the inhibitory ability of the test compound against human FGFR1 and FGFR4.
(§4) Buffer conditions: 20 mM Hepes (pH 7.5), 10 mM MgCl2, 1 mM EGTA, 0.02% Brij35, 0.02 mg/mL BSA, 0.1 mM Na3VO4, 2 mM DTT, and 1% DMSO.
(§5) Test procedures: At room temperature, the compound of Formula (I) was dissolved in DMSO to prepare a 10 mM solution. The substrate was dissolved in a freshly prepared buffer, and added with the test kinase and well mixed. By using acoustic technology (Echo 550), the solution of the test compound in DMSO was added into the above well-mixed reaction solution, to allow a compound concentration in reaction solution to be 10 μM, 3.33 μM, 1.11 μM, 0.370 μM, 0.123 μM, 41.2 nM, 13.7 nM, 4.57 nM, 1.52 nM, and 0.508 nM, or to be 10 μM, 2.50 μM, 0.62 μM, 0.156 μM, 39.1 nM, 9.8 nM, 2.4 nM, 0.61 nM, 0.15 nM, and 0.038 nM. After 15 minutes of incubation, ^33P-ATP (having an activity of 0.01 μCi/μl, and corresponding concentrations were given in Table 3) was added to start the reaction. Information about FGFR1, FGFR4 and their substrate's supplier, catalog number and lot number, as well as their concentration in the reaction solution, was listed in Table 3. […]

Data set [11] addresses T9, human FGFR4 (Homo sapiens, UniProt P22455).
T9 construct: purchased Invitrogen P3054
The data set can be described thus: 33P isotope-labeled kinase activity assay, wild type FGFR4. The data set is classed as biochemical. The conditions noted are these: ATP 100 μM. On the procedure:
as §3, §4, §5

The target in data set [12] is T10, FGFR3 (V555M) (Homo sapiens, UniProt P22607, V555M).
T10 construct: purchased SignalChem F06-12GG
T10 sequence (P22607 23-806 V555M): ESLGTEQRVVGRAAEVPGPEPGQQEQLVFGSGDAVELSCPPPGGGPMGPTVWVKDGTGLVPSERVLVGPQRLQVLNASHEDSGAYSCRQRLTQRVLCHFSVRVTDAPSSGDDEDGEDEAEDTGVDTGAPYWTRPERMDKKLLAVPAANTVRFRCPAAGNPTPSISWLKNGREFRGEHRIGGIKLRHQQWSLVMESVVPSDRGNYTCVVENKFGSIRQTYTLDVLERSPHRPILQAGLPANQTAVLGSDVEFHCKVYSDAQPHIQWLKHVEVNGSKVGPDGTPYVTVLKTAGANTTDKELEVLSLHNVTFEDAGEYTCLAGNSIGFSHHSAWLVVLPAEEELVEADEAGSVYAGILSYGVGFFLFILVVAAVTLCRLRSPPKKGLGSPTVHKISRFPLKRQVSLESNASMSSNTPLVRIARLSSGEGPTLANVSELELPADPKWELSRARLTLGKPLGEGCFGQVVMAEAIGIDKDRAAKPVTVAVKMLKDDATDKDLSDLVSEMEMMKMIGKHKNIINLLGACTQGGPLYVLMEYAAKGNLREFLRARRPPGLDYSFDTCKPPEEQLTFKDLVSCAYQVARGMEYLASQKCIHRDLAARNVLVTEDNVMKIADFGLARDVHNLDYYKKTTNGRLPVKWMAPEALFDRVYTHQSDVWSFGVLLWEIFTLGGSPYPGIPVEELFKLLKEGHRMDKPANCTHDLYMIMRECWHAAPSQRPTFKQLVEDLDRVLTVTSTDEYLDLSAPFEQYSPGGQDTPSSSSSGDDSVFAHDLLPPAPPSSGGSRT
In words: 33P isotope-labeled kinase activity assay, mutant FGFR3 (V555M). The data set is classed as biochemical. The conditions noted are these: ATP 20 μM. On the procedure:
as §1, §2

Setting [13] is: 1 mg/kg, intravenous administration (1 mpk).
[14] abbreviates: 5 mg/kg, oral administration (5 mpk).

Read-outs that look alike come from different tables or passages of the source.

T4 sequence (P21802 22-821 V564F): as the sequence (P21802 22-821 E565G) above, with V543F, G544E counted along it
T9 sequence (P22455 22-802): as the sequence (P22455 22-802 N535K) above, with K514N counted along it
T1 sequence (P11362 22-822 V561M): as the sequence (P11362 22-822) above, with V540M counted along it
T2 sequence (P22607 23-806 K650M): as the sequence (P22607 23-806 V555M) above, with M533V, K628M counted along it
T6 sequence (P22455 22-802 V550M): as the sequence (P22455 22-802 N535K) above, with K514N, V529M counted along it
T3 sequence (P21802 22-821 N549H): as the sequence (P21802 22-821 E565G) above, with N528H, G544E counted along it

Consider `C=CC(=O)N1CC[C@H](c2cc(-c3cc4cc(C)cc(OC)c4s3)c3c(N)ncnn23)C1`, for which, in data set [1], the hygroscopicity classification result is reported as “no or almost no hygroscopicity (weight gain caused by moisture is less than 0.2%.)” and the “weight gain caused by moisture-adsorption ΔW” value worked out at 0.1928%.

For `C=CC(=O)N1CC[C@H](c2cc(-c3cc4cc(C)cc(OC)c4s3)c3c(N)ncnn23)C1` [compound represented by Formula (I)], the IC50 (in general, the concentration needed to halve the response being measured) was found to be 38 nM in [2]; 0.2 nM in [3]; 0.5 nM in data set [4]; 33 nM in data set [6]; 0.1 nM in [7]; 5.6 nM in [8]. In addition, the IC50 turned out to be 34 nM in data set [9], 0.2 nM in data set [10], 0.2 nM in [11] and 7.3 nM in data set [12]. Besides, the clearance – broadly, the rate of elimination divided by the concentration – in [5] (setting [13]) is 9.4 mL/min/kg. Moreover, the AUC in data set [5] (setting [13]) was 4.13 µM·h; in data set [5] (setting [14]), 18.2 µM·h. Also, the half-life in data set [5] (setting [13]) is 3 h. In addition, in data set [5] (setting [14]), the bioavailability – broadly, dose-corrected exposure relative to a reference, in per cent – stood at 88%.

Take `C=CC(=O)N1CC[C@H](n2nc(C#Cc3cc(OC)cc(OC)c3)c3c(N)ncnc32)C1` [reference compound 1, reference compound]: in data set [5] (setting [13]), the clearance came out at 17 mL/min/kg and the half-life is 0.8 h. The bioavailability in [5] (setting [14]) is 41%.
